# US4088778A, “Method for the treatment of hypertension” (priority 1975, dated 1978)
# Assay: Clinical Test I, double blind: subjective symptoms
# Type: in vivo, human patients
# Conditions: for Stiffness in Shoulders: Improvement ratio: P group 45.2
# Procedure: 94 patients of hypertension or arteriosclerosis having subjective symptoms were tested, and some of them suffered from complications such as ischemia heart disease, hypertensive heart disease and encephalomalacia.
# As the active drug, there were employed hard capsules, each containing 100 mg of TN.
# Two capsules were orally administered at one time, and the administration was conducted three times a day after eating. The period of the administration was principally 4 weeks or 6 weeks. During this period, the administration was performed continuously. Combined administration of drugs having the same function as that of TN (vitamin E drugs, nicotinic acid, its derivatives and peripheral vasolidators) was prohibited. Drugs which had been continuously administered since before the start of the administration of TN were similarly administered according to the disease case and symptom, and change of the prescription during the test was avoided.
# In the above Table, the "Improved" means that the symptom was improved by at least one grade as compared with the symptom before the administration,and each number denotes the total number of the patients in whom the symptom was thus improved.
# *The patients were divided into two groups, one in which the symptom was
# improved by at least 2 grades (the sum of the patients in which the
# symptoms were improved by 2, 3 and 4 grades) and the other in which the
# symptom was improved by one grade, unchanged or worsened. The assay was
# conducted on these two groups. (In other cases, the patients were divided
# into two groups, one in which the symptom was improved by one grade and
# the other in which the symptom was unchanged or worsened, and the assay
# was made on these two groups.)
# according to Fischer direct probability calculation method.
# [1] = number of patients, total 3 (Table 9)
# [2] = number of patients, total 7 (Table 9)
# [3] = number of patients, total 8 (Table 9)
# [4] = number of patients, total 9 (Table 9)
# [5] = number of patients, total 9 (Table 10)
# [6] = number of patients, total 11 (Table 9)
# [7] = number of patients, total 13 (Table 9)
# [8] = number of patients, total 14 (Table 9)
# [9] = number of patients, total 15 (Table 9)
# [10] = number of patients, total 16 (Table 9)
# [11] = number of patients, total 16 (Table 10)
# [12] = number of patients, total 17 (Table 9)
# [13] = number of patients, total 18 (Table 9)
# [14] = number of patients, total 18 (Table 10)
# [15] = number of patients, total 23 (Table 9)
# [16] = number of patients, total 23 (Table 10)
# [17] = number of patients, total 25 (Table 9)
# [18] = number of patients, total 25 (Table 10)
# [19] = number of patients, total 26 (Table 9)
# [20] = number of patients, total 26 (Table 10)
# [21] = number of patients, total 28 (Table 9)
# [22] = number of patients, total 28 (Table 10)
# [23] = number of patients, total 30 (Table 9)
# [24] = number of patients, total 51 (Table 10)
smiles,measurement,setting,value
"Cc1c(C)c2c(c(C)c1OC(=O)c1cccnc1)CCC(C)(CCCC(C)CCCC(C)CCCC(C)C)O2 (racemic) [TN, dl-α-tocopheryl nicotinate]",Forgetfulness: Improvement Ratio,"Table 9, P group 21.7",38.9%
same,Virtigo: Improvement Ratio,"Table 9, P group 37.5",66.7%
same,Pains on Waist and Back: Improvement Ratio,"Table 9, P group 40.0",64.7%
same,Syncope: Improvement Ratio,"Table 9, P group 40.0",75.0%
same,Chill on Limbs: Improvement Ratio,"Table 9, P group 41.2",35.7%
same,Stiffness in Nape: Improvement ratio,"Table 9, P group 43.8",68.0%
same,Stiffness in Shoulders: Improvement ratio,Table 9,65.4%
same,Insomnia: Improvement ratio,"Table 9, P group 47.4",83.3%
same,Dizzy Feeling: Improvement ratio,"Table 9, P group 50.0",81.3%
same,Irritation: Improvement Ratio,"Table 9, P group 50.0",66.7%
same,Rush of Blood: Improvement Ratio,"Table 9, P group 50.0",69.2%
same,Tinnitus: Improvement Ratio,"Table 9, P group 52.6",50.0%
same,Palsy in Limbs: Improvement ratio,"Table 9, P group 53.8",82.6%
same,Short Breath: Improvement Ratio,"Table 9, P group 53.8",42.9%
same,Heaviness in Head: Improvement Ratio,"Table 9, P group 62.5",82.1%
same,Oppression on Breast: Improvement Ratio,"Table 9, P group 63.6",62.5%
same,Warmness: Improvement Ratio,"Table 9, P group 66.7",77.8%
same,Languor: Improvement Ratio,"Table 9, P group 70.6",60.0%
same,Palpitation: Improvement Ratio,"Table 9, P group 76.9",72.7%
same,Depression: Improvement Ratio,"Table 9, P group 77.8",42.9%
same,Headache: Improvement ratio,"Table 9, P group 78.6",83.3%
same,Pain on Breast: Improvement Ratio,"Table 9, P group 100.0",71.4%
same,Vertigo: Improvement ratio,"Table 10, P group 37.5",66.7%
same,Stiffness in Nape: Improvement ratio,"Table 10, P group 43.8, chi0^2 = 3.3270, P < 0.10",68.0%
same,Stiffness in Shoulders and Nape: Improvement ratio,"Table 10, P group 44.4, chi0^2 = 5.6104, P < 0.025",66.7%
same,Stiffness in Shoulders: Improvement ratio,Table 10,65.4%
same,Vertigo plus Dizzy Feeling: Improvement ratio,"Table 10, P group 46.4, chi0^2 = 8.3955, P < 0.005",73.1%
same,Insomnia: Improvement ratio,"Table 10, P group 47.4, P = 0.0247",83.3%
same,Dizzy Feeling: Improvement ratio,"Table 10, P group 50.0, chi0^2 = 7.4243, P < 0.01",81.3%
same,Palsy in Limbs: Improvement ratio,"Table 10, P group 53.8, P = 0.0318",82.6%
same,Headache: Improvement ratio,"Table 10, P group 62.5, chi0^2 = 3.1277, P < 0.10",82.1%
same,"relief of headache, vertigo, dizzy feeling, syncope, stiffness in the shoulders, stiffness in the nape, palsy in limbs, insomnia and pains on the waist and the back","human, in vivo",excellent effects were attained
same,Irritation: Improved,[1],2
same,Irritation: Unchanged or Worsened,[1],1
same,Depression: Improved,[2],3
same,Depression: Unchanged or Worsened,[2],4
same,Pain on Breast: Improved,[2],5
same,Pain on Breast: Unchanged or Worsened,[2],2
same,Short Breath: Improved,[2],3
same,Short Breath: Unchanged or Worsened,[2],4
same,Oppression on Breast: Improved,[3],5
same,Oppression on Breast: Unchanged or Worsened,[3],3
same,Syncope: Improved,[3],6
same,Syncope: Unchanged or Worsened,[3],2
same,Virtigo: Improved,[4],6
same,Virtigo: Unchanged or Worsened,[4],3
same,Warmness: Improved,[4],7
same,Warmness: Unchanged or Worsened,[4],2
same,Vertigo: Improved by 1 grade,[5],1
same,Vertigo: Improved by 2 grades,[5],3
same,Vertigo: Improved by 3 grades,[5],1
same,Vertigo: Improved by 4 grades,[5],1
same,Vertigo: Not Changed,[5],2
same,Vertigo: Worsened by 1 grade,[5],1
same,Vertigo: Worsened by 2 grades,[5],0
same,Palpitation: Improved,[6],8
same,Palpitation: Unchanged or Worsened,[6],3
same,Rush of Blood: Improved,[7],9
same,Rush of Blood: Unchanged or Worsened,[7],4
same,Chill on Limbs: Improved,[8],5
same,Chill on Limbs: Unchanged or Worsened,[8],9
same,Languor: Improved,[9],9
same,Languor: Unchanged or Worsened,[9],6
same,Dizzy Feeling: Improved,[10],13
same,Dizzy Feeling: Unchanged or Worsened,[10],3
same,Tinnitus: Improved,[10],8
same,Tinnitus: Unchanged or Worsened,[10],8
same,Dizzy Feeling: Improved by 1 grade,[11],0
same,Dizzy Feeling: Improved by 2 grades,[11],11
same,Dizzy Feeling: Improved by 3 grades,[11],1
same,Dizzy Feeling: Improved by 4 grades,[11],1
same,Dizzy Feeling: Not Changed,[11],2
same,Dizzy Feeling: Worsened by 1 grade,[11],1
same,Dizzy Feeling: Worsened by 2 grades,[11],0
same,Pains on Waist and Back: Improved,[12],11
same,Pains on Waist and Back: Unchanged or Worsened,[12],6
same,Forgetfulness: Improved,[13],7
same,Forgetfulness: Unchanged or Worsened,[13],11
same,Insomnia: Improved,[13],15
same,Insomnia: Unchanged or Worsened,[13],3
same,Insomnia: Improved by 1 grade,[14],7
same,Insomnia: Improved by 2 grades,[14],7
same,Insomnia: Improved by 3 grades,[14],0
same,Insomnia: Improved by 4 grades,[14],1
same,Insomnia: Not Changed,[14],2
same,Insomnia: Worsened by 1 grade,[14],1
same,Insomnia: Worsened by 2 grades,[14],0
same,Palsy in Limbs: Improved,[15],19
same,Palsy in Limbs: Unchanged or Worsened,[15],4
same,Palsy in Limbs: Improved by 1 grade,[16],11
same,Palsy in Limbs: Improved by 2 grades,[16],7
same,Palsy in Limbs: Improved by 3 grades,[16],1
same,Palsy in Limbs: Improved by 4 grades,[16],0
same,Palsy in Limbs: Not Changed,[16],4
same,Palsy in Limbs: Worsened by 1 grade,[16],0
same,Palsy in Limbs: Worsened by 2 grades,[16],0
same,Stiffness in Nape: Improved,[17],17
same,Stiffness in Nape: Unchanged or Worsened,[17],8
same,Stiffness in Nape: Improved by 1 grade,[18],11
same,Stiffness in Nape: Improved by 2 grades,[18],5
same,Stiffness in Nape: Improved by 3 grades,[18],1
same,Stiffness in Nape: Improved by 4 grades,[18],0
same,Stiffness in Nape: Not Changed,[18],5
same,Stiffness in Nape: Worsened by 1 grade,[18],2
same,Stiffness in Nape: Worsened by 2 grades,[18],1
same,Vertigo plus Dizzy Feeling: Improved by 1 grade,[18],1
same,Vertigo plus Dizzy Feeling: Improved by 2 grades,[18],14
same,Vertigo plus Dizzy Feeling: Improved by 3 grades,[18],2
same,Vertigo plus Dizzy Feeling: Improved by 4 grades,[18],2
same,Vertigo plus Dizzy Feeling: Not Changed,[18],4
same,Vertigo plus Dizzy Feeling: Worsened by 1 grade,[18],2
same,Vertigo plus Dizzy Feeling: Worsened by 2 grades,[18],0
same,Stiffness in Shoulders: Improved,[19],17
same,Stiffness in Shoulders: Unchanged or Worsened,[19],9
same,Stiffness in Shoulders: Improved by 1 grade,[20],10
same,Stiffness in Shoulders: Improved by 2 grades,[20],5
same,Stiffness in Shoulders: Improved by 3 grades,[20],0
same,Stiffness in Shoulders: Improved by 4 grades,[20],2
same,Stiffness in Shoulders: Not Changed,[20],8
same,Stiffness in Shoulders: Worsened by 1 grade,[20],1
same,Stiffness in Shoulders: Worsened by 2 grades,[20],0
same,Heaviness in Head: Improved,[21],23
same,Heaviness in Head: Unchanged or Worsened,[21],5
same,Headache: Improved by 1 grade,[22],7
same,Headache: Improved by 2 grades,[22],12
same,Headache: Improved by 3 grades,[22],4
same,Headache: Improved by 4 grades,[22],0
same,Headache: Not Changed,[22],4
same,Headache: Worsened by 1 grade,[22],1
same,Headache: Worsened by 2 grades,[22],0
same,Headache: Improved,[23],25
same,Headache: Unchanged or Worsened,[23],5
same,Stiffness in Shoulders and Nape: Improved by 1 grade,[24],13
same,Stiffness in Shoulders and Nape: Improved by 2 grades,[24],21
same,Stiffness in Shoulders and Nape: Improved by 3 grades,[24],1
same,Stiffness in Shoulders and Nape: Improved by 4 grades,[24],2
same,Stiffness in Shoulders and Nape: Not Changed,[24],3
same,Stiffness in Shoulders and Nape: Worsened by 1 grade,[24],1
same,Stiffness in Shoulders and Nape: Worsened by 2 grades,[24],0
